According to patent US20100203043A1, “TREATMENT AND DIAGNOSIS OF METASTATIC PROSTATE CANCER WITH INHIBITORS OF EPIDERMAL GROWTH FACTOR RECEPTOR (EGFR)” (priority 2007, published 2010):

Tested on: LNCaP cells
Test: Kinase activity profiling (PamChip peptide arrays) of LNCaP cells treated with synthetic androgen analog
Type: cell-based, human
Parameters: key to ZAP70_y492/y493 phosphopeptide fold change (log2) relative to LNCaP baseline / RASA_y460 phosphopeptide fold change (log2) relative to LNCaP baseline / RET_y1029 phosphopeptide fold change (log2) relative to LNCaP baseline / IRS2_y919 phosphopeptide fold change (log2) relative to LNCaP baseline / JAK1_y1022/y1023 phosphopeptide fold change (log2) relative to LNCaP baseline / LCK_y394 phosphopeptide fold change (log2) relative to LNCaP baseline / MET_y1230/y1234/y1235 phosphopeptide fold change (log2) relative to LNCaP baseline / PDPK1_y9 phosphopeptide fold change (log2) relative to LNCaP baseline / PDPK1_y373/y376 phosphopeptide fold change (log2) relative to LNCaP baseline / EPHB1_y778 phosphopeptide fold change (log2) relative to LNCaP baseline / ERBB2_y877 phosphopeptide fold change (log2) relative to LNCaP baseline / ERBB2_y1248 phosphopeptide fold change (log2) relative to LNCaP baseline / CDK2_t14/y_5 phosphopeptide fold change (log2) relative to LNCaP baseline / DDRl_y792/y796/y797 phosphopeptide fold change (log2) relative to LNCaP baseline / MAPK10 phosphopeptide fold change (log2) relative to LNCaP baseline / MAPK12_t183/y185 phosphopeptide fold change (log2) relative to LNCaP baseline / PECAM1_y713 phosphopeptide fold change (log2) relative to LNCaP baseline / PRRX2_y214 phosphopeptide fold change (log2) relative to LNCaP baseline / ANXA1_y20/t23 phosphopeptide fold change (log2) relative to LNCaP baseline / CD79A_y182/y188 phosphopeptide fold change (log2) relative to LNCaP baseline / CTTN1_y477/y483 phosphopeptide fold change (log2) relative to LNCaP baseline / CTTN1_y499 phosphopeptide fold change (log2) relative to LNCaP baseline / ENO2_y43 phosphopeptide fold change (log2) relative to LNCaP baseline / EPHA2_y772 phosphopeptide fold change (log2) relative to LNCaP baseline / EPHA7_y608/y614 phosphopeptide fold change (log2) relative to LNCaP baseline / EPOR_y368 phosphopeptide fold change (log2) relative to LNCaP baseline / EPOR_y426 phosphopeptide fold change (log2) relative to LNCaP baseline / FER_y714 phosphopeptide fold change (log2) relative to LNCaP baseline / FES_y713 phosphopeptide fold change (log2) relative to LNCaP baseline / FGFR2_y769 phosphopeptide fold change (log2) relative to LNCaP baseline / FGFR3_y760 phosphopeptide fold change (log2) relative to LNCaP baseline / FRK_y387 phosphopeptide fold change (log2) relative to LNCaP baseline / LAT_y255 phosphopeptide fold change (log2) relative to LNCaP baseline / EGFR_y1110 phosphopeptide fold change (log2) relative to LNCaP baseline / NTRK2_y702/y706/y707 phosphopeptide fold change (log2) relative to LNCaP baseline / PDGFRB_y579/y581 phosphopeptide fold change (log2) relative to LNCaP baseline / PDGFRB_y716 phosphopeptide fold change (log2) relative to LNCaP baseline / PIK3R1_y607/s608 phosphopeptide fold change (log2) relative to LNCaP baseline / PXN_y31 phosphopeptide fold change (log2) relative to LNCaP baseline / PXN_y118 phosphopeptide fold change (log2) relative to LNCaP baseline / TEC_y519 phosphopeptide fold change (log2) relative to LNCaP baseline / MST1R_y1353 phosphopeptide fold change (log2) relative to LNCaP baseline / MST1R_y1356/y1360 phosphopeptide fold change (log2) relative to LNCaP baseline / FAK_y576/y577 phosphopeptide fold change (log2) relative to LNCaP baseline / FAK2_y579/y580 phosphopeptide fold change (log2) relative to LNCaP baseline / LAT_y200 phosphopeptide fold change (log2) relative to LNCaP baseline: —: ‘-’ denotes that the change in peptide phosphorylation level was not found to be significant
Details: ‘androgenic’: LNCaP cells, 100 nM R1881, 48 h
Method: Cell culture conditions. The LNCaP and OHS cell lines were routinely held in RPMI 1640 medium supplemented with 10% fetal bovine serum (FBS) and 2.0 mM glutamine, defined as growth medium. Different ratios of LNCaP cells to OHS cells had been tested in a series of cocultures to find the optimal culturing conditions [Bratland et al., 2003]. Seventy-two hours before start of experimental incubations, LNCaP and OHS cells were seeded in a 10:1 ratio in RPMI containing 2% charcoal-treated FBS and glutamine. After 48 h, this medium was changed to RPMI containing 0.5% charcoal-treated FBS and glutamine, defined as experimental medium, for another 24 h before experimental incubations were started (at time 0). Monocultures of LNCaP cells were identically incubated prior to experimental incubations.
Monocultures of LNCaP, as well as LNCaP/OHS cocultures, were seeded in a total number of 1.0×10^6 cells in 75 cm2 cell flasks and invariably held in 10 ml medium throughout different incubations. At time 0 (start of the experimental incubations), monocultured LNCaP cells were refed with experimental medium supplemented with 100 nM R1881 (methyltrienolone; Life Science Products), a synthetic androgen analog, or with medium conditioned by OHS cells. The conditioned medium had been collected from OHS monocultures that had been seeded in a 10-fold higher number per volume medium compared to the corresponding cell number of the LNCaP/OHS cocultures, and grown for 48 h (relative to time 0) in experimental medium. This medium was subsequently diluted 1:10 in either fresh experimental medium or in medium obtained from standard LNCaP monocultures after 48 h of incubation (relative to time 0) in experimental medium, before the application onto monocultured LNCaP cells.
To be able to analyze LNCaP signaling pathways activated by direct contact with OHS cells, LNCaP cells were isolated from cocultures by immunomagnetic selection [Forus et al., 1999, Fodstad et al., 2001, Bruland et al., 2005, Tveito et al., 2007]. This rapid and simple procedure enables specific selection of target cells for further analytical applications. Subsequent multiplex profiling of kinase activity was performed using flow-through, porous microarrays with peptide substrates (PamChip® peptide arrays; PamGene International B.V., www.pamgene.com), a novel platform that allows rapid, real-time measurements of phosphopeptide signatures generated by the biological samples.
Androgens are critical regulators of prostate carcinoma progression. Most patients respond to androgen ablation therapy, but only temporarily, also at bone metastasis sites. Until recently, the regulatory program mediated by the androgen receptor in prostate cancer has been elusive [Dehm & Tindall, 2006]. To simulate the complex processes involved in aberrant activation of the androgen signaling axis upon disease progression of prostate cancer [Feldman & Feldman, 2001, Attard et al., 2006], our experimental setting included LNCaP cells treated with a synthetic androgen analog (R1881, 100 nM) to observe whether androgen receptor-mediated signaling pathways might be different from those activated by OHS-directed influence.
The LNCaP samples were given denotations in accordance with their biological context: ‘direct’ (cells from LNCaP/OHS cocultures), ‘paracrine 1’ (cells treated with OHS-conditioned medium mixed with fresh medium), ‘paracrine 2’ (cells treated with OHS-conditioned medium mixed with medium conditioned by LNCaP cells), and ‘androgenic’ (cells treated with the synthetic androgen analog), in addition to baseline (untreated reference cells).
To identify regulatory mechanisms underlying the affinity of prostate cancer to bone, the substrate phosphorylation state generated by each LNCaP entity (‘direct’, ‘paracrine’, ‘androgenic’) was calculated with respect to baseline. […]

## C[C@]1(O)CC[C@H]2[C@@H]3CCC4=CC(=O)CCC4=C3C=C[C@@]21C [R1881, methyltrienolone]
  ANXA1_y20/t23 phosphopeptide fold change (log2) relative to LNCaP baseline: —
  CD79A_y182/y188 phosphopeptide fold change (log2) relative to LNCaP baseline: —
  CDK2_t14/y_5 phosphopeptide fold change (log2) relative to LNCaP baseline: —
  CHRNB1_y390 phosphopeptide fold change (log2) relative to LNCaP baseline: 1.57 fold change (log2)
  CREBl_y134/s133 phosphopeptide fold change (log2) relative to LNCaP baseline: 1.47 fold change (log2)
  CTTN1_y477/y483 phosphopeptide fold change (log2) relative to LNCaP baseline: —
  CTTN1_y499 phosphopeptide fold change (log2) relative to LNCaP baseline: —
  DDRl_y792/y796/y797 phosphopeptide fold change (log2) relative to LNCaP baseline: —
  EGFR_y1110 phosphopeptide fold change (log2) relative to LNCaP baseline: —
  EGFR_y1197 phosphopeptide fold change (log2) relative to LNCaP baseline: 1.94 fold change (log2)
  ENO2_y43 phosphopeptide fold change (log2) relative to LNCaP baseline: —
  EPHA2_y772 phosphopeptide fold change (log2) relative to LNCaP baseline: —
  EPHA7_y608/y614 phosphopeptide fold change (log2) relative to LNCaP baseline: —
  EPHB1_y778 phosphopeptide fold change (log2) relative to LNCaP baseline: —
  EPOR_y368 phosphopeptide fold change (log2) relative to LNCaP baseline: —
  EPOR_y426 phosphopeptide fold change (log2) relative to LNCaP baseline: —
  ERBB2_y877 phosphopeptide fold change (log2) relative to LNCaP baseline: —
  ERBB2_y1248 phosphopeptide fold change (log2) relative to LNCaP baseline: —
  ERBB4_y1284 phosphopeptide fold change (log2) relative to LNCaP baseline: 3.31 fold change (log2)
  FAK2_y579/y580 phosphopeptide fold change (log2) relative to LNCaP baseline: —
  FAK_y576/y577 phosphopeptide fold change (log2) relative to LNCaP baseline: —
  FER_y714 phosphopeptide fold change (log2) relative to LNCaP baseline: —
  FES_y713 phosphopeptide fold change (log2) relative to LNCaP baseline: —
  FGFR2_y769 phosphopeptide fold change (log2) relative to LNCaP baseline: —
  FGFR3_y760 phosphopeptide fold change (log2) relative to LNCaP baseline: —
  FRK_y387 phosphopeptide fold change (log2) relative to LNCaP baseline: —
  GSK3B_y216 phosphopeptide fold change (log2) relative to LNCaP baseline: 1.15 fold change (log2)
  IRS2_y919 phosphopeptide fold change (log2) relative to LNCaP baseline: —
  JAK1_y1022/y1023 phosphopeptide fold change (log2) relative to LNCaP baseline: —
  LAT_y200 phosphopeptide fold change (log2) relative to LNCaP baseline: —
  LAT_y255 phosphopeptide fold change (log2) relative to LNCaP baseline: —
  LCK_y394 phosphopeptide fold change (log2) relative to LNCaP baseline: —
  LTK_y772/y776/y777 phosphopeptide fold change (log2) relative to LNCaP baseline: 1.20 fold change (log2)
  MAPK10 phosphopeptide fold change (log2) relative to LNCaP baseline: —
  MAPK12_t183/y185 phosphopeptide fold change (log2) relative to LNCaP baseline: —
  MET_y1230/y1234/y1235 phosphopeptide fold change (log2) relative to LNCaP baseline: —
  MST1R_y1353 phosphopeptide fold change (log2) relative to LNCaP baseline: —
  MST1R_y1356/y1360 phosphopeptide fold change (log2) relative to LNCaP baseline: —
  NTRK2_y702/y706/y707 phosphopeptide fold change (log2) relative to LNCaP baseline: —
  PDGFRB_y579/y581 phosphopeptide fold change (log2) relative to LNCaP baseline: —
  PDGFRB_y716 phosphopeptide fold change (log2) relative to LNCaP baseline: —
  PDPK1_y9 phosphopeptide fold change (log2) relative to LNCaP baseline: —
  PDPK1_y373/y376 phosphopeptide fold change (log2) relative to LNCaP baseline: —
  PECAM1_y713 phosphopeptide fold change (log2) relative to LNCaP baseline: —
  PFKFB1_s33 phosphopeptide fold change (log2) relative to LNCaP baseline: 1.36 fold change (log2)
  PIK3R1_y607/s608 phosphopeptide fold change (log2) relative to LNCaP baseline: —
  PRRX2_y214 phosphopeptide fold change (log2) relative to LNCaP baseline: —
  PTPN11_y542 phosphopeptide fold change (log2) relative to LNCaP baseline: 2.94 fold change (log2)
  PXN_y31 phosphopeptide fold change (log2) relative to LNCaP baseline: —
  PXN_y118 phosphopeptide fold change (log2) relative to LNCaP baseline: —
  RAF1_s337/s338/y339/y340 phosphopeptide fold change (log2) relative to LNCaP baseline: 1.14 fold change (log2)
  RASA_y460 phosphopeptide fold change (log2) relative to LNCaP baseline: —
  RB1_s807/s811 phosphopeptide fold change (log2) relative to LNCaP baseline: 3.07 fold change (log2)
  RET_y1029 phosphopeptide fold change (log2) relative to LNCaP baseline: —
  SYN1_s9 phosphopeptide fold change (log2) relative to LNCaP baseline: 1.20 fold change (log2)
  TEC_y519 phosphopeptide fold change (log2) relative to LNCaP baseline: —
  ZAP70_y492/y493 phosphopeptide fold change (log2) relative to LNCaP baseline: —
